Source: patent publication US12365674B2, “Inhibitors of histone deacetylase useful for the treatment or prevention of HIV infection” (Merck Sharp & Dohme LLC, priority 2019, dated 2025)

Target: T1, human HDAC8 (Homo sapiens, UniProt Q9BY41)
T1 construct: purchased Enzo Life Sciences BML-SE145-0100
T1 sequence (Q9BY41 1-377): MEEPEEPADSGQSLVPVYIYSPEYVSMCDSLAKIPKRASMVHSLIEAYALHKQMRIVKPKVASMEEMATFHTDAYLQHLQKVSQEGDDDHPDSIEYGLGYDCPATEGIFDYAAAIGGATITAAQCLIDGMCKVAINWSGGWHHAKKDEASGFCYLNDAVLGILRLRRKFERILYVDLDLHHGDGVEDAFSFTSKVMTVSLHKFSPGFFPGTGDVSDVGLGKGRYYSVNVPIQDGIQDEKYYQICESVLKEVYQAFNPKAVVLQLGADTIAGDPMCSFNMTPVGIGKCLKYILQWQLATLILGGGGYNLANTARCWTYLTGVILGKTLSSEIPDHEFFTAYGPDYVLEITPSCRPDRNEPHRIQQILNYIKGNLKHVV
Experiment: Human HDAC enzyme inhibitor Fluor-de-Lys assay, HDAC8
Format: biochemical
Settings: 1.3 nM enzyme, 200 μM substrate BML-KI178, 3 h pre-incubation, 60 min reaction; read-out: HDAC8_IC50
Excerpt: Recombinant human HDAC8 (catalog number BML-SE145-0100) and HDAC10 (catalog number BML-SE559-0050) enzymes, HDAC substrates BML-KI104 and BML-KI178, and HDAC developer solutions BML-KI105 and BML-KI176 were purchased from Enzo Life Sciences (Farmingdale, NY). Recombinant human HDAC5 and HDAC11 were purchased from BPS Bioscience (San Diego, CA)(catalog numbers 50045 and 50021). Substrate Boc-Lys(TFA)-AMC was obtained from Bachem (Bupendorf, Switzerland) (catalog number 1-1985). HDAC inhibitor suberoylanilide hydroxamic acid (SAHA) was obtained from Indofine (Hillsborough Township, NJ) and trichostatin A (TSA) was obtained from Sigma-Aldrich (St. Louis, MO). […] HEPES pH 8.0 was obtained from Boston BioProducts (Ashland, MA), Tween-20 from Fisher Scientific (Hampton, NH)(catalog number BP337), TCEP from Calbiochem and 7.5% bovine serum albumin (BSA) from Life Technologies (Carlsbad, CA) (catalog number 15260037). 384-well, black assay plates were obtained from Corning (Corning, NY) (catalog number 3575).
The histone deacetylase activities of HDAC1, HDAC2, HDAC3, HDAC6, and HDAC8 were measured in modified Fluor-de-Lys assays in 384-well format. In this assay, HDAC enzymes are initially incubated with an ε-acetyl (or -trifluoroacetyl)-L-lysine-containing substrate with a C-terminal amide having aminomethylcoumarin as the amine component. HDACs cleave the ε-acetyl group, rendering the resulting product susceptible to AMC cleavage by trypsin. The released AMC is then detected by its fluorescence.
The HDAC 1, 2 assays employed buffer A, which contained 20 mM HEPES, pH 8.0, 1 mM MgCl2, 137 mM NaCl, 2.7 mM KCl, 0.05% BSA. The HDAC3/SMRT assay employed buffer B, consisting of 20 mM HEPES, pH 8.0, 1 mM MgCl2, 50 mM NaCl, 2.7 mM KCl, 0.05% BSA, 0.005% Tween 20, and 10 μM IP4. The HDAC6 assay employed buffer C, consisting of 20 mM HEPES, pH 8.0, 1 mM MgCl2, 137 mM NaCl, 2.7 mM KCl, 0.5 mM TCEP (Calbiochem) and 0.05% BSA. The HDAC8 assay employed buffer D, consisting of 20 mM HEPES, pH 8.0, 1 mM MgCl2, 100 mM NaCl, 20 mM KCl, 0.1% n-octyl-β-D-glucoside (Anatrace, Maumee, OH) and 0.05% BSA. All steps were performed at room temperature (23° C.). The assay was performed by pre-incubating serial dilutions of test compounds with the target HDAC prior to initiation with substrate. Each compound was titrated in a 10-point dose response, using a 1:3 fold dilution scheme, with 0.15 ul of solution added by ECHO555 to the plate, followed by the addition of 20 μl of the appropriate HDAC isoform diluted in appropriate assay buffer. […] Final conditions used for each assay were: 1. HDAC 1, 0.3 nM total enzyme, 20 μM substrate BML-K1104; 2. HDAC 2, 1.5 nM total enzyme, 40 μM substrate BML-K1104; 3. HDAC 3/SMRT, 0.3 nM total enzyme, 20 μM substrate BML-K1104; 4. HDAC 6, 1.3 nM total enzyme, 2.5 μM substrate BML-K1104; 5. HDAC 8, 1.3 nM total enzyme, 200 μM substrate BML-K1178; the final high dose of test compound was 30 μM. For potent compounds, 900 nM was used as the final high dose. The reactions were stopped and developed by addition of 30 ul of HDAC developer solution containing a saturating level of HDAC inhibitor as follows: 1.

SMILES	IC50
N[C@@H](COCCCC(=O)c1ccon1)c1ncc(-c2ccccc2F)[nH]1 [Compound 2, (R)-4-(2-amino-2-(5-(2-fluorophenyl)-1H-imidazol-2-yl)ethoxy)-1-(isoxazol-3-yl)butan-1-one]	> 900 nM
CCC(=O)CCCOC[C@H](NC(=O)c1cncs1)c1ncc(-c2cc3ccccc3nc2OC)[nH]1 [Compound 5, N-{(1R)-1-[5-(2-methoxyquinolin-3-yl)-1H-imidazol-2-yl]-2-[(4-oxohexyl)oxy]ethyl}-1,3-thiazole-5-carboxamide]	2720 nM
CCC(=O)CCCOC[C@H](NC(=O)C12CCN(CC1)CC2)c1ncc(-c2cc3ccccc3nc2OC)[nH]1 [Compound 6, N-{(1R)-1-[5-(2-methoxyquinolin-3-yl)-1H-imidazol-2-yl]-2-[(4-oxohexyl)oxy]ethyl}-1-azabicyclo[2.2.2]octane-4-carboxamide]	> 45000 nM
CCC(=O)CCCOC[C@H](NC(=O)[C@H]1CC12CCN(CC)CC2)c1ncc(-c2cc3ccccc3nc2OC)[nH]1 [Compound 7, (1S)-6-ethyl-N-{(1R)-1-[5-(2-methoxyquinolin-3-yl)-1H-imidazol-2-yl]-2-[(4-oxohexyl)oxy]ethyl}-6-azaspiro[2.5]octane-1-carboxamide]	> 45000 nM
CNC(=O)C(=O)CCCOC[C@H](NC(=O)c1cncs1)c1ncc(-c2cc3ccccc3nc2OC)[nH]1 [Compound 8, N-[(1R)-1-[5-(2-methoxyquinolin-3-yl)-1H-imidazol-2-yl]-2-{[5-(methylamino)-4,5-dioxopentyl]oxy}ethyl]-1,3-thiazole-5-carboxamide]	3860 nM
CNC(=O)C(=O)CCCOC[C@H](NC(=O)C12CCN(CC1)CC2)c1ncc(-c2cc3ccccc3nc2OC)[nH]1 [Compound 9, N-[(1R)-1-[5-(2-methoxyquinolin-3-yl)-1H-imidazol-2-yl]-2-{[5-(methylamino)-4,5-dioxopentyl]oxy}ethyl]-1-azabicyclo[2.2.2]octane-4-carboxamide]	3370 nM
COc1nc2ccccc2cc1-c1cnc([C@H](COCCCC(=O)c2ncco2)NC(=O)c2cncs2)[nH]1 [Compound 10, N-{(1R)-1-[5-(2-methoxyquinolin-3-yl)-1H-imidazol-2-yl]-2-[4-(1,3-oxazol-2-yl)-4-oxobutoxy]ethyl}-1,3-thiazole-5-carboxamide]	1380 nM
COc1nc2ccccc2cc1-c1cnc([C@H](COCCCC(=O)c2ncco2)NC(=O)[C@H]2CC23CCN(C)CC3)[nH]1 [Compound 11, (1S)-N-{(1R)-1-[5-(2-methoxyquinolin-3-yl)-1H-imidazol-2-yl]-2-[4-(1,3-oxazol-2-yl)-4-oxobutoxy]ethyl}-6-methyl-6-azaspiro[2.5]octane-1-carboxamide]	7780 nM
COc1nc2ccccc2cc1-c1cnc([C@H](COCCCC(=O)c2ncco2)NC(=O)C23CCN(CC2)CC3)[nH]1 [Compound 12, N-{(1R)-1-[5-(2-methoxyquinolin-3-yl)-1H-imidazol-2-yl]-2-[4-(1,3-oxazol-2-yl)-4-oxobutoxy]ethyl}-1-azabicyclo[2.2.2]octane-4-carboxamide]	5550 nM
COc1nc2ccccc2cc1-c1cnc([C@H](COCCCC(=O)c2ncco2)NC(=O)CN(C)C)[nH]1 [Compound 13, N-{(1R)-1-[5-(2-methoxyquinolin-3-yl)-1H-imidazol-2-yl]-2-[4-(1,3-oxazol-2-yl)-4-oxobutoxy]ethyl}-N~2~,N~2~- dimethylglycinamide]	17000 nM
COc1nc2ccccc2cc1-c1cnc([C@H](COCCCC(=O)c2ccon2)NC(=O)CN(C)C)[nH]1 [Compound 14, N-{(1R)-2-(4-isoxazol-3-yl-4-oxobutoxy)-1-[5-(2-methoxyquinolin-3-yl)-1H-imidazol-2-yl]ethyl}-N~2~,N~2~- dimethylglycinamide]	1760 nM
CN1CC(C(=O)N[C@@H](COCCCC(=O)c2ccon2)c2ncc(-c3ccccc3F)[nH]2)C1 [Compound 15, N-[(1R)-1-[5-(2-fluorophenyl)-1H-imidazol-2-yl]-2-(4-isoxazol-3-yl-4-oxobutoxy)ethyl]-1-methylazetidine-3-carboxamide]	> 900 nM
CN1CC(C(=O)N[C@@H](COCCCC(=O)c2ccon2)c2[nH]c(-c3ccc(F)cc3)nc2Cl)C1 [Compound 16, N-[(1R)-1-[4-chloro-2-(4-fluorophenyl)-1H-imidazol-5-yl]-2-(4-isoxazol-3-yl-4-oxobutoxy)ethyl]-1-methylazetidine-3-carboxamide]	> 900 nM
CN(C)CC(=O)N[C@@H](COCCCC(=O)c1ccon1)c1[nH]c(-c2ccc(F)cc2)nc1Cl [Compound 17, N-[(1R)-1-[4-chloro-2-(4-fluorophenyl)-1H-imidazol-5-yl]-2-(4-isoxazol-3-yl-4-oxobutoxy)ethyl]-N~2~,N~2~- dimethylglycinamide]	> 900 nM
CN1CCC2(CC1)C[C@@H]2C(=O)N[C@@H](COCCCC(=O)c1ccon1)c1[nH]c(-c2ccc(F)cc2)nc1Cl [Compound 18, (1S)-N-[(1R)-1-[4-chloro-2-(4-fluorophenyl)-1H-imidazol-5-yl]-2-(4-isoxazol-3-yl-4-oxobutoxy)ethyl]-6-methyl-6-azaspiro[2.5]octane-1-carboxamide]	> 900 nM
COc1cc2nc(C)ccc2cc1-c1cnc([C@H](COCCCC(=O)c2cc(C)on2)NC(=O)C2CN(C)C2)[nH]1 [Compound 19, N-{(1R)-1-[5-(7-methoxy-2-methylquinolin-6-yl)-1H-imidazol-2-yl]-2-[4-(5-methylisoxazol-3-yl)-4-oxobutoxy]ethyl}-1-methylazetidine-3-carboxamide]	> 900 nM
COc1cc2nc(C)ccc2cc1-c1cnc([C@H](COCCCC(=O)c2cc(C)on2)NC(=O)[C@H]2CC23CCN(C)CC3)[nH]1 [Compound 20, (1S)-N-{(1R)-1-[5-(7-methoxy-2-methylquinolin-6-yl)-1H-imidazol-2-yl]-2-[4-(5-methylisoxazol-3-yl)-4-oxobutoxy]ethyl}-6-methyl-6-azaspiro[2.5]octane-1-carboxamide]	> 900 nM
Cc1ccc2cc(-c3cnc([C@H](CSCCCC(=O)c4ncco4)NC(=O)[C@H]4CC45CCN(C)CC5)[nH]3)ccc2n1 [Compound 21, (1S)-6-methyl-N-[(1R)-1-[5-(2-methylquinolin-6-yl)-1H-imidazol-2-yl]-2-{[4-(1,3-oxazol-2-yl)-4-oxobutyl]sulfanyl}ethyl]-6-azaspiro[2.5]octane-1-carboxamide]	1050 nM
